Measured values from ChEMBL document CHEMBL5154929, “Optimization of the Natural Product Calothrixin A to Discover Novel Dual Topoisomerase I and II Inhibitors with Improved Anticancer Activity” (J Med Chem, 2022).
Activity calls are given as the source filed them. No cut-off for these calls is given here.

Assays:
A-375 [1] = assay: Induction of apoptosis in human A-375 cells assessed as increase in expression level of C-caspase-8 measured after 24 hrs by Western blotting analysis; format: functional, cell-based; conditions: dose 40-120 nM, DDE = dose-dependent effect
[2] = Clearance in Kunming mouse plasma at 10 mg/kg, iv administered as single dose measured after 5 to 360 mins by HPLC analysis; format: ADME, organism-based; conditions: time 5-360 min
A549 = assay: Cytotoxicity against human A549 cells expressing high level of topoisomerase I/II measured after 72 hrs by MTT assay; format: functional, cell-based; conditions: A549, 72 h
SH-SY5Y = assay: Cytotoxicity against human SH-SY5Y cells expressing low level of topoisomerase I/II measured after 72 hrs by MTT assay; format: functional, cell-based
[3] = Tmax in Kunming mouse plasma at 10 mg/kg, iv administered as single dose measured after 5 to 360 mins by HPLC analysis; format: ADME, organism-based; conditions: time 5-360 min
A-375 [4] = assay: Induction of cell cycle arrest in human A-375 cells assessed as accumulation of cells at S phase at 40 nM incubated for 24 hrs by PI based flow cytometric analysis (RVB = 26.73%); format: functional
[5] = Aqueous solubility of the compound in saline equilibrating for 24 hrs by HPLC analysis; format: physicochemical
A-375 [6] = assay: Induction of apoptosis in human A-375 cells at 80 nM measured after 16 hrs by Annexin V-FITC and DAPI staining based flow cytometric analysis; format: functional
[7] = In vivo acute toxicity in Balb/C mouse assessed as mortality at 10 to 50 mg/kg, iv administered once per 2 days for 7 days; format: organism-based; conditions: 168 h, dose 10-50 mg/kg, time 7 day
[8] = In vivo acute toxicity in Balb/C mouse assessed as tolerability at 50 mg/kg, iv administered once per 2 days for 7 days measured every other day; format: organism-based; conditions: 168 h, time 7 day
A-375 [9] = assay: Induction of apoptosis in human A-375 cells assessed as increase in expression level of C-caspase-3 measured after 24 hrs by Western blotting analysis; format: functional, cell-based; conditions: dose 40-120 nM, DDE = dose-dependent effect
A-375 [10] = assay: Induction of apoptosis in human A-375 cells assessed as increase in expression level of Bad measured after 24 hrs by Western blotting analysis; format: functional, cell-based; conditions: dose 40-120 nM, DDE = dose-dependent effect
A-375 [11] = assay: Induction of cell cycle arrest in human A-375 cells assessed as accumulation of cells at G1 phase at 80 nM incubated for 24 hrs by PI based flow cytometric analysis (RVB = 52.94%); format: functional
MDA-MB-231 = assay: Cytotoxicity against human MDA-MB-231 cells expressing high level of topoisomerase I/II measured after 72 hrs by MTT assay; format: functional, cell-based; conditions: MDA-MB-231, 72 h
A-375 [12] = assay: Induction of apoptosis in human A-375 cells at 120 nM measured after 24 hrs by Annexin V-FITC and DAPI staining based flow cytometric analysis; format: functional
[13] = Metabolic stability in mouse plasma upto 5 hrs by HPLC-UV analysis; format: ADME, cell-free
A-375 [14] = assay: Induction of cell cycle arrest in human A-375 cells assessed as accumulation of cells at G2 phase at 20 nM incubated for 24 hrs by PI based flow cytometric analysis (RVB = 20.34%); format: functional
MCF7 = assay: Cytotoxicity against human MCF7 cells expressing high level of topoisomerase I/II measured after 72 hrs by MTT assay; format: functional, cell-based; conditions: MCF7, 72 h
A-375 [15] = assay: Antimigratory activity in human A-375 cells assessed as reduction in cell migration incubated for 24 hrs by wound healing assay; format: functional, cell-based; conditions: dose 10-40 nM, DDE = dose-dependent effect
A-375 [16] = assay: Induction of apoptosis in human A-375 cells at 80 nM measured after 24 hrs by Annexin V-FITC and DAPI staining based flow cytometric analysis; format: functional
Calf thymus DNA = assay: Binding affinity to calf thymus DNA assessed as intercalation by measuring hypochromic shift at 389 nm by […]; format: nucleic-acid assay; conditions: Bos taurus
[17] = Half life in Kunming mouse plasma at 10 mg/kg, iv administered as single dose measured after 5 to 360 mins by HPLC analysis; format: ADME, organism-based; conditions: time 5-360 min
A-375 [18] = assay: In vivo antitumor activity against human A-375 cells xenografted in BALB/c nude mouse assessed as shrinkage of tumor tissue treated after 7 days of tumor implantation on right flank subcutaneously at 10 to 20 mg/kg, iv administered once per 2 days for 14 days measured once every two days; format: functional, organism-based; conditions: dose 10-20 mg/kg, time 14.0 day
A-375 [19] = assay: Induction of cell cycle arrest in human A-375 cells assessed as accumulation of cells at G2 phase at 80 nM incubated for 24 hrs by PI based flow cytometric analysis (RVB = 20.34%); format: functional
[20] = biological target: T1, DNA topoisomerase 1 (Homo sapiens) (UniProt P11387); assay: Poison activity at human topoisomerase I assessed as stabilization of enzyme-DNA cleavage complex by measuring nicked DNA formation at 100 uM after 60 mins by agarose gel electrophoresis method
T1 sequence (whole entry): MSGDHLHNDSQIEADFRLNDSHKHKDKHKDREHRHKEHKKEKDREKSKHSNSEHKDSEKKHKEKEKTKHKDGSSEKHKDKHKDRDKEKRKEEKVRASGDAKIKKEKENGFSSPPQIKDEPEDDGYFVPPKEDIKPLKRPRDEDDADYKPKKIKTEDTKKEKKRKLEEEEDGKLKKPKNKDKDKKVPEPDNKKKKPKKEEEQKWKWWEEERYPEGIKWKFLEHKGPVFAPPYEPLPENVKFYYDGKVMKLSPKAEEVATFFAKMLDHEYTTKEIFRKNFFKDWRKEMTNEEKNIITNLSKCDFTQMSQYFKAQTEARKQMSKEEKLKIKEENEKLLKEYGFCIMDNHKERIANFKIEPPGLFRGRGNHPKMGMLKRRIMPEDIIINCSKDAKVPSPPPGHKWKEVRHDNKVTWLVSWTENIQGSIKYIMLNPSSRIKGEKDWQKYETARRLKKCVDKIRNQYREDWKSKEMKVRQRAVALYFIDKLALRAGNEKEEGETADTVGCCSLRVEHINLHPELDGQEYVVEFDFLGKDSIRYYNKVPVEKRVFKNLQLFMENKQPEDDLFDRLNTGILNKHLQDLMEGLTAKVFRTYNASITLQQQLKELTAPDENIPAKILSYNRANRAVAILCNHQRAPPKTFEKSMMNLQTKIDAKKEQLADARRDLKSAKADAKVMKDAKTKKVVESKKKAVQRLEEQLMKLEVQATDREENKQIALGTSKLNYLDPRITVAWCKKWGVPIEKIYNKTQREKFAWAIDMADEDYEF

HCT-116 = assay: Antiproliferative activity against doxorubicin sensitive human HCT-116 cells measured after 72 hrs by MTT assay; format: functional, cell-based; conditions: HCT-116, 72 h
A-375 [21] = assay: Induction of apoptosis in human A-375 cells at 80 nM measured after 8 hrs by Annexin V-FITC and DAPI staining based flow cytometric analysis; format: functional
[22] = Cytotoxicity against human L02 cells measured after 72 hrs by MTT assay; format: toxicity, cell-based
A-375 [23] = assay: Induction of apoptosis in human A-375 cells assessed as increase in expression level of Bax measured after 24 hrs by Western blotting analysis; format: functional, cell-based; conditions: dose 40-120 nM, DDE = dose-dependent effect
[24] = In vivo acute toxicity in Balb/C mouse assessed as pathological damage in heart at 50 mg/kg, iv administered once per 2 days for 7 days measured 24 hrs after last dose by H and E staining method; format: organism-based; conditions: 168 h, time 7 day

## O=C1c2c[n+]([O-])c3ccccc3c2C(=O)c2c1c1ccccc1n2Cc1cn([C@@H]2C[C@H](O)[C@@H](CO)O2)nn1
A-375 [1]
  Activity: Dde
[2]
  clearance: 1 mL/min/kg
A549
  IC50: 120 nM
SH-SY5Y
  IC50: 150 nM
[3]
  Tmax: 5 min
A-375 [4]
  Activity: 43.2%
[5]
  solubility at 24 h: > 5000 µg/mL
A-375 [6]
  Activity: 23.78%
[7]
  Activity: Non-Toxic
[8]
  Activity: Non-Toxic
A-375 [9]
  Activity: Dde
A-375 [10]
  Activity: Dde
A-375 [11]
  Activity: 34.99%
MDA-MB-231
  IC50: 130 nM
A-375 [12]
  Activity: 55.94%
[13]
  Stability: Stable
A-375 [14]
  Activity: 29.19%
MCF7
  IC50: 110 nM
A-375 [15]
  Activity: Dde
A-375 [16]
  Activity: 36.21%
Calf thymus DNA
  Activity: 29%
[17]
  half-life: 2.52 h
A-375 [18]
  Activity: Active
A-375 [19]
  Activity: 6.88%
[20]
  Activity: Active
HCT-116
  IC50: 50 nM
A-375 [21]
  Activity: 7.14%
[22]
  IC50 at 72 h: 630 nM
A-375 [23]
  Activity: Dde
[24]
  Activity: Non-Toxic
